Test results taken from patent publication US7378387B2, “Method of suppressing immune response by reducing intracellular content of glutathione in macrophages and monocytes” (Ajinomoto Co., Inc., priority 1997, dated 2008).
Counter-ions that a name gives are not always drawn.

Experiments:
[1] = system: peritoneal exudate cells (macrophages); assay: Induction of oxidative or reductive macrophages by administration, monochlorobimane/ACAS (Example 9); format: in vivo, DBA/2 mice; conditions: Day 1 and Day 2, cells harvested 20 hours later; 20 μg (NAC-OMe)2 or (NAC)2, 10 μg acetylgliotoxin, 2 mg NAC intraperitoneally; 40 μg dexamethasone subcutaneously
Experimental: (§1) This was clarified by harvesting peritoneal exudate cells 20 hours after the completion of the administration, adhering the cells to the plastic surface, then reacting the cells with 10 μM of monochlorobimane at 37° C. for 30 minutes, and analyzing the reaction product with ACAS. The increase in the amounts of oxidative macrophages can easily be determined visually from the fact that almost no reaction product with monochlorobimane is observed, namely, a gray or blue image is provided, and the increase in the amounts of reductive macrophages from the fact that a red or yellow image is provided respectively. […] Meanwhile, the same examination was conducted by harvesting peritoneal exudate cells after 20 hours of the administration of 2 mg of N-acetylcystine (NAC).

NO [2] = assay: NO production from macrophages induced through administration (Example 9, Table 1); format: in vivo, DBA/2 mice; conditions: LPS 100 ng/ml, IFNγ 100 units/ml
Experimental: (§2) A stimulator was added to 1×10^5 MΦ, and the incubation was conducted at 37° C. for 2 days in a CO2 incubator. After the completion of the centrifugation, the culture supernatant was collected.
(§3) One hundred microliters of a Griess-Romijn reagent (supplied by Waco Pure Chemical Industries, Ltd.) adjusted to a concentration of 50 mg/ml in distilled water were added to 100 μl of the culture supernatant, and the reaction was conducted at room temperature for 15 minutes. After the completion of reaction, an absorbance of 540 nm was measured. NaNO2 was used as a standard.
as §1
(§4) Thus, the peritoneal exudate adherent cells were incubated in the following manner, and the amounts of NO and IL-12 produced in the culture supernatant were measured. With respect to the amount of IL-6, the amount of IL-6 produced spontaneously in the absence of a stimulator was measured.
(§5) Cells: The peritoneal exudate adherent cells obtained by the stimulation, namely, the macrophages were added to a 96-well microplate in an amount of 1×10^5 cells/200 μl each.
(§6) Medium: Phenol red-free RPMI 1640: 200 μl/well
(§7) LPS: Lipopolysaccharide (made by Sigma Co.) (origin: E. coli) 100 ng/ml

IL-6 [3] = assay: IL-6 production from macrophages induced through administration (Example 9, Table 1); format: in vivo, DBA/2 mice; design: concentration or dose not given beside the values; conditions: produced spontaneously in the absence of a stimulator
Experimental: (§8) A stimulator was added to 1×10^6 MΦ, and the incubation was conducted at 37° C. for 2 days in a CO2 incubator. After centrifugation, the culture supernatant was collected.
(§9) The amount of IL-6 was determined using IL-6 dependent mouse hybridoma MH60 cells (J. Eur. Immunol., vol. 18, p. 951, 1988). One hundred microliters of the culture supernatant were added to 100 μl of the MH60 cell suspension adjusted to 1×10^5 cells/ml in a 10% FCS-containing RPMI medium, and the mixed solution was incubated at 37° C. for 2 days in a CO2 incubator. Subsequently, 10 μl of MTT (supplied by Sigma Co.) solution adjusted to a concentration of 5 mg/ml in the same medium were added thereto, and the reaction was conducted at 37° C. for 5 hours. After the completion of the reaction, the centrifugation was conducted. The supernatant (160 μl) was removed, and 100 μl of a mixture of hydrochloric acid and propanol were added to the residue. The suspension was conducted using a pipetman to dissolve the cells. Immediately after the dissolution, an absorbance of 570 nm was measured with an immunometer (supplied by Bio-Rad).
as §1, §4, §5, §6

IL-12 [4] = assay: IL-12 production from macrophages induced through administration (Example 9, Table 1); format: in vivo, DBA/2 mice; conditions: LPS 100 ng/ml, IFNγ 100 units/ml
Experimental: (§10) The amount of IL-12 was determined through bioassay using cells of human T cell strain 2D6 (J. Leukocyte Biology, vol. 61, p. 346, 1997).
(§11) 2D6 cells which had been incubated in an RPMI 1640 medium containing 500 pg/ml of recombinant human IL-12, 50 μM of 2-mercaptoethanol and 10% FCS (fetal calf serum) were moved to a tube, and centrifugally washed three times with the above-mentioned medium without IL-12 and cell density was adjusted to 1×10^5/ml. The cell suspension was added in an amount of 100 μl each to a 96-well flat bottom plate containing a sample serially diluted in advance with an RPMI 1640 medium containing 50 μM of 2-mercaptoethanol and 10% FCS in an amount of 100 μl each. Subsequently, the mixture was charged into a 5% […] incubator of 37° C., and incubated for 48 hours. For final 6 hours, ^3H-TdR was pulsed (a substance adjusted to 370 kBq/ml in an RPMI 1640 medium containing 50 μM of 2-mercaptoethanol and 10% FCS was added in an amount of 50 μl each). The cells a harvested, and the radioactivity was measured using a β counter (Matrix 96, supplied by Packard).
The increase in the amounts of oxidative macrophages can easily be determined visually from the fact that almost no reaction product with monochlorobimane is observed, namely, a gray or blue image is provided, and the increase in the amounts of reductive macrophages from the fact that a red or yellow image is provided respectively. […] Meanwhile, the same examination was conducted by harvesting peritoneal exudate cells after 20 hours of the administration of 2 mg of N-acetylcystine (NAC).
as §4, §5, §6, §7

IL-12 [5] = assay: IL-12 production by MΦ induced by intraperitoneal injection of substances (Example 7); format: in vivo, mouse; conditions: MΦ induced by intraperitoneal injection of the substance; stimulation with LPS and IFNγ
Experimental: as §10, §11
It was examined whether there is a difference in the IL-12 production between LNT-induced MΦ and LPS-induced MΦ. […] Next, the same analysis was conducted using MΦ induced by intraperitoneally injecting substances for changing the GSH content in cells.

IL-12 [6] = assay: Suppression of IL-12 production of reductive MΦ by DEM or IL-4 (Example 7); format: cell-based, mouse
Experimental: as §10, §11
As mentioned above, IL-12 was produced only in reductive MΦ having the high GSH content in cells. It was examined whether this production is suppressed by converting MΦ to oxidative MΦ. That is, it was analyzed whether the IL-12 production is suppressed by exposing lentinan-induced MΦ with DEM.
(§12) IL-4 is a cytokine which acts on MΦ suppressively. IL-4 is considered to have an opposite function to IL-12 in the Th1/Th2 balance as well. Accordingly, it was examined whether IL-4 acts suppressively on the IL-12 production by reductive MΦ.

[7] = system: reductive glutathione in MΦ; assay: Content of reductive glutathione in MΦ treated with IL-4, ACAS image analysis (Example 7); format: cell-based, mouse; conditions: image analysis by ACAS
Experimental: Three-hundred microliters of a cell suspension adjusted concentration of 3×10^5 cells/ml in an RPMI 1640 medium (phenol red-free) were charged into a chambered coverglass (#136439, supplied by Nunc), and incubated at 37° C. for 2 hours using a CO2 incubator. The culture solution was washed with the medium, and 300 μl of monochlorobimane (supplied by Molecular Plobe) adjusted to 10 μM in the same medium were added thereto. The mixture was charged into a CO2 incubator of 37° C., and the reaction was conducted for 30 minutes. The fluorescent intensity was measured with ACAS. In ACAS, a UV laser was used.
as §12

NO [8] = assay: NO production of MΦ pretreated with IL-4 (Example 7); format: cell-based, mouse
Experimental: as §2, §3
Reductive MΦ increases the NO production by the IFNγ stimulation in comparison with oxidative MΦ, and rather suppresses the IL-6 production. IFNγ is known to be a cytokine produced from Th1 cells. […] Further, MΦ of which the GSH content in cells was increased by the stimulation with GSH-OEt and MΦ of which the GSH content in cells was decreased by the stimulation with DEM were pretreated with IL-4, and IFNγ thereafter and LPS stimulation was carried out to induce NO production.

IL-6 [9] = assay: IL-6 production of MΦ pretreated with IL-4 (Example 7); format: cell-based, mouse
Experimental: as §8, §9
Further, MΦ of which the GSH content in cells was increased by the stimulation with GSH-OEt and MΦ of which the GSH content in cells was decreased by the stimulation of DEM were pretreated with IL-4, and IFNγ was exposed thereon to induce the IL-6 production. […]

Which results are given for `CC(=O)O[C@H]1C=CC=C2C[C@]34SS[C@](CO)(C(=O)N3[C@@H]21)N(C)C4=O` [Acetylgliotoxin]?
type of macrophages induced (monochlorobimane, ACAS) [1]: Oxidative macrophages were induced; NO, amount produced relative to that of control group (NO [2]): 22%; IL-6, amount produced relative to that of control group (IL-6 [3]): 450%; IL-12, amount produced relative to that of control group (IL-12 [4]): 14%

How did the IL-12 production (IL-12 [5]) turn out when `CCOC(=O)/C=C\C(=O)OCC` [DEM, diethyl maleate, reference compound] was run?
The IL-12 production was “produced only in MΦ derived from GSH-OEt administered mice”.

What about the “IL-12 production from lentinan-induced MΦ with the addition of DEM” value (IL-12 [6]; without DEM 828 pg/ml) of the same molecule?
The value was 0 pg/mL.

For `C[C@@H]1C[C@H]2[C@@H]3CCC4=CC(=O)C=C[C@]4(C)[C@@]3(F)[C@@H](O)C[C@]2(C)[C@@]1(O)C(=O)CO` [Dexamethasone, dexamethasone, reference compound], which “NO, amount produced relative to that of control group” value (NO [2]) is on record?
Its value is 45%.

And the “IL-6, amount produced relative to that of control group” value (IL-6 [3])?
Its value is 1020%.

What about the “IL-12, amount produced relative to that of control group” value (IL-12 [4]) of the same molecule?
The value was 5%.

B1: IL-4: interleukin 4, a cytokine which acts on MΦ suppressively; typical Th2 cytokine (protein, UniProt P05112 25-153, looked up)
Interleukin-4: HKCDITLQEIIKTLNSLTEQKTLCTELTVTDIFAASKNTTEKETFCRAATVLRQFYSHHEKDTRCLGATAQQFHRHKQLIRFLKRLDRNLWGLAGLNSCPVKEANQSTLENFLERLKTIMREKYSKCSS
What does the source list for B1?
IL-12 production by GSH-OEt administered mouse MΦ after pretreatment with IL-4 (IL-12 [6]; without IL-4 490 pg/ml): 258 pg/mL; IL-12 production by LNT-induced MΦ after pretreatment with IL-4 (IL-12 [6]; without IL-4 1,580 pg/ml): 370 pg/mL; content of reductive glutathione in MΦ [7]: markedly decreases; NO production of GSH-OEt-stimulated and DEM-stimulated MΦ pretreated with IL-4 (NO [8]; IFNγ and LPS stimulation, both subsets of MΦ): remarkably suppressed; IFNγ NO production from MΦ pretreated with IL-4 in comparison with untreated MΦ (NO [8]; IFNγ stimulation): significantly suppressed; IL-6 production of GSH-OEt-stimulated and DEM-stimulated MΦ pretreated with IL-4 (IL-6 [9]; IFNγ exposure, in comparison with IL-4-untreated MΦ): increased; IL-6 production with IFNγ after pretreatment with IL-4 (IL-6 [9]; resident MΦ, LPS-induced MΦ and LNT-induced MΦ): markedly increased
